According to publication PMC10819430, “Binding Affinity and Mechanism of Six PFAS with Human Serum Albumin: Insights from Multi-Spectroscopy, DFT and Molecular Dynamics Approaches” (Toxics, 2024):
Entries after “also recorded” stand apart in the source; their conditions may differ.

What was measured:
HSA [1] = biological target: T1, HSA (Homo sapiens, UniProt P02768); test: Circular dichroism (CD) spectrum, secondary structure of HSA; details: HSA:PFAS 1:18, 298 K; for HSA secondary structure: β-Sheet: HSA alone 4.9; for HSA secondary structure: β-Turn: HSA alone 16.9; for HSA secondary structure: Random Coil: HSA alone 36.7; for HSA secondary structure: α-Helix: HSA alone 41.6
T1 construct: HSA (≥96%) and six PFAS were all purchased from Aladdin Chemicals (Shanghai, China); purchased Aladdin Chemicals (Shanghai, China)
T1 sequence (P02768 25-609): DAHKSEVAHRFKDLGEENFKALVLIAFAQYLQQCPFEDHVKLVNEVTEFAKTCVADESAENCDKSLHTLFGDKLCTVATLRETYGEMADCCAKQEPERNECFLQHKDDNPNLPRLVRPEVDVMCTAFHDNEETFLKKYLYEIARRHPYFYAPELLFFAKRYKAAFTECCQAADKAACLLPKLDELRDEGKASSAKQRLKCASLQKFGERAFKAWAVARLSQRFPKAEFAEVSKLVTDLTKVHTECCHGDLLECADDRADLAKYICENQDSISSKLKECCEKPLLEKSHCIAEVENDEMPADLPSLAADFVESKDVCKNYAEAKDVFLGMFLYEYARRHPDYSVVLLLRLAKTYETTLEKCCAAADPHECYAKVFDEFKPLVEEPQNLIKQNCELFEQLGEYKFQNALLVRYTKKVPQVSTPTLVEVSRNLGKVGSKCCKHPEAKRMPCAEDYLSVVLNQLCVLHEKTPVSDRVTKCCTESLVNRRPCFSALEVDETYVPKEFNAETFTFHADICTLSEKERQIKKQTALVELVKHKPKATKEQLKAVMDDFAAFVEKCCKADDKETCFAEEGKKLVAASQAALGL
Excerpt: CD measurements (190–260 nm) were taken before and after the addition of PFAS to HSA using a J-815 CD spectrometer equipped with a PMT detector (JASCO, Tokyo, Japan). The protein concentration was set at 1 × 10^−6 mol/L, with a fixed HSA-to-PFAS concentration ratio of 1:18. The scanning rate was set to 100 nm/min with 0.5 nm increments, and the photometric mode of HT. Each sample was scanned three times. The blank buffer control was automatically subtracted during the scanning process. All tests were carried out at 298 K. The CONTIN analysis method from the DichroWeb was employed to determine the contents of the protein’s secondary structure.

HSA [2] = biological target: T1, HSA; test: Competitive probe experiment (warfarin, ibuprofen, lidocaine); type: binding
Excerpt: Competitive probe experiments are commonly used to identify specific binding sites in the structure of proteins. Three probe molecules known to bind to distinct binding sites on HSA were selected: warfarin (subdomain IIA), ibuprofen (subdomain IIIA), and lidocaine (subdomain IIB). These probe molecules would compete with PFAS for the same protein sites when binding with HSA. The potential binding sites can be inferred by monitoring and comparing changes in fluorescence intensity when probe molecules are present.

[3] = biological target: T2, Human Serum Albumin (HSA) (Homo sapiens, UniProt P02768); test: Fluorescence quenching of HSA by PFAS (Stern–Volmer, double logarithmic and Van't Hoff analysis); type: binding; details: for quenching of HSA fluorescence intensity: PFAS 1.8 × 10^−5 mol·L^−1, HSA 1 × 10^−6 mol·L^−1, 298 K; for Kq (quenching rate constant): τ0 taken as 10^−8 s; for ΔH / ΔS: Van't Hoff, 298–310 K; for affinity for HSA: fluorescence quenching experiments; for main interaction force from thermodynamic analysis: signs of ΔH and ΔS
T2 construct: HSA (≥96%) and six PFAS were all purchased from Aladdin Chemicals (Shanghai, China); purchased Aladdin Chemicals (Shanghai, China)
T2 sequence (P02768 25-609): as above
Procedure: Fluorescence quenching experiments greatly benefit studies on the interactions between ligands and proteins. Initially, 3 mL of HSA stock solution was put into a 10 mm square quartz cuvette. Following that, PFAS stock solution was gradually added to achieve various final concentrations, namely 0, 3, 6, 9, 12, 15, 18 × 10^−6 mol·L^−1. By incrementally increasing the molar ratio of PFAS vs. HSA up to 18, their binding characteristics can be better investigated.
A thermostat (TR-01A, Bishui Corp, Beijing, China) was used to precisely control the solution temperature, which was set at 298, 304, and 310 K. This device includes a temperature controller and a metal heating cuvette module in conjunction with a fluorometer. This thermostat has a temperature range of 20–60 °C (293–333 K) and an accuracy of 0.1 °C Celsius. This step is critical for keeping the experimental conditions stable. Following that, the samples were fluorescence-scanned with a fluorometer (Cary Eclipse, Agilent, CA, USA). The excitation wavelength was set at 275 nm to efficiently stimulate tryptophan (Trp) and tyrosine (Tyr) residues. Additional test parameters include an emission of 275–500 nm, scanning rate of 1200 nm/min and PTV voltage of 700 v. Fluorescence quenching experiments were repeated three times, and the average values were taken for further calculation.
Fluorescence internal filtration (IFE) refers to the phenomenon where the fluorescence intensity decreases during fluorescence measurement due to the absorption of excitation or emission light by sample components (small molecules or proteins) in solution [19, 20]. This phenomenon is more obvious in the samples with a high concentration of adsorbent. A fluorescence correction formula was used in this study to correct the IFE effect on the data, as follows: Fcorr=Fobs×10^Aex+Aem/2 where Fcorr and Fobs are corrected and observed fluorescence emission intensities, respectively, Aex and Aem are UV-vis absorbances at the excitation and emission wavelengths.
The quenching constant can be calculated using the Stern–Volmer Equation (3). The results are shown in Table 2 and Figure 1: F0/F=1+Kqτ0=1+KsvQ where F0 and F refer to HSA fluorescence intensities without and with the quencher (PFAS solution); Kq is the biomacromolecule’s quenching rate constant; τ0 is the average fluorescence lifetime of the fluorescent molecule when the quencher PFAS is absent, usually taken as 10^−8 s; [Q] is the PFAS concentration; Ksv is the Stern–Volmer quenching constant; F0/F is the vertical axis; the Stern–Volmer curves of this system are 298, 304, and 310 K.
The double logarithmic formula can be used to calculate the binding constants and binding site numbers of HSA–PFAS complexes: logF0−F/F=logKb+nlogQ where F0 and F are parameters representing the initial fluorescence intensity and the fluorescence intensity after adding PFAS, respectively. The binding characteristics are represented by the binding constant, Kb, and the number of binding sites, n. The slope of the straight line is the number of binding sites, n, and the binding constant Kb is obtained from the exponent of the straight line’s intercept using the double logarithmic graph. Figure A2 and Table 2 show the calculation results.
The enthalpy change (∆H), entropy change (∆S), and free energy change (∆G) calculated from the Van’t Hoff equation [50] can be used to determine the type of interaction. lnKb=−ΔH/RT+ΔS/R ΔG=ΔH−TΔS=−RTlnKb where R represents the ideal gas constant (8.314 J·mol^−1·K^−1).

HSA [4] = biological target: T1, HSA; test: 3D-EEM fluorescence spectra of HSA–PFAS; details: for 3D-EEM Peak A Position λex/λem / 3D-EEM Peak B Position λex/λem / 3D-EEM Peak A Intensity F / 3D-EEM Peak B Intensity F: HSA 1 × 10^−6, PFAS 1.8 × 10^−5 mol·L^−1; for 3D-EEM Peak A Intensity F: HSA alone 673.66; for 3D-EEM Peak B Intensity F: HSA alone 996.906
Procedure: The 3D-EEM spectra were recorded using specific scanning parameters at the scanning rate of 2400 nm·min^−1, an […] with 5 nm increments, and an emission of 280–550 nm with 2 nm increments. The concentrations of PFAS and HSA were set at 18 × 10^−6 mol·L^−1 and 1 × 10^−6 mol·L^−1, respectively.

Row | Structure (SMILES) | HSA secondary structure: β-Sheet (HSA [1]) | HSA secondary structure: β-Turn (HSA [1]) | HSA secondary structure: Random Coil (HSA [1]) | HSA secondary structure: α-Helix (HSA [1]) | φ (rate of decrease in Kb) (HSA [2]; ibuprofen probe) | φ (rate of decrease in Kb) (HSA [2]; lidocaine probe) | φ (rate of decrease in Kb) (HSA [2]; warfarin probe) | fluorescence quenching mechanism [3] | quenching of HSA fluorescence intensity [3] | KSV (Stern–Volmer quenching constant) ([3]; T = 298 K) | n (number of binding sites) ([3]; T = 298 K) | ΔG ([3]; T = 298 K) | Kq (quenching rate constant) ([3]; T = 298 K) | KSV (Stern–Volmer quenching constant) ([3]; T = 304 K) | n (number of binding sites) ([3]; T = 304 K) | ΔG ([3]; T = 304 K) | Kq (quenching rate constant) ([3]; T = 304 K) | KSV (Stern–Volmer quenching constant) ([3]; T = 310 K) | n (number of binding sites) ([3]; T = 310 K) | ΔG ([3]; T = 310 K) | also measured
1 | O=C(O)C(F)(F)C(F)(F)C(F)(F)C(F)(F)C(F)(F)C(F)(F)C(F)(F)C(F)(F)F [PFNA, Perfluorononanoic Acid] | 7.6% | 15.1% | 41.2% | 36.2% | 13.8% | 43.9% | 98.3% | static quenching | 30.6% | 2.52 ± 0.10 × 10^4 L·mol^−1 | 1.51 ± 0.06 | -9.398 kcal/mol | 2.52 ± 0.10 × 10^12 L·mol^−1·s^−1 | 2.35 ± 0.11 × 10^4 L·mol^−1 | 1.18 ± 0.03 | -7.376 kcal/mol | 2.35 ± 0.11 × 10^12 L·mol^−1·s^−1 | 1.27 ± 0.04 × 10^4 L·mol^−1 | 1.10 ± 0.04 | -7.087 kcal/mol | Kq (quenching rate constant) ([3]; T = 310 K): 1.27 ± 0.04 × 10^12 L·mol^−1·s^−1; ΔH [3]: -66.503 ± 1.3 kcal/mol; ΔS [3]: −805.8 ± 13.8 J·mol^−1·K^−1; HSA fluorescence peak position after PFAS addition (blue shift from 337 nm) ([3]; as the concentration of PFAS increases): 317 nm; affinity for HSA [3]: high affinity; main interaction force from thermodynamic analysis [3]: hydrogen bonds or van der Waals interactions; also recorded: hydrogen bonds or van der Waals forces; 3D-EEM Peak A Position λex/λem (HSA [4]): 280/329; 3D-EEM Peak B Position λex/λem (HSA [4]): 230/310; 3D-EEM Peak A Intensity F (HSA [4]): 418.74 a.u.; 3D-EEM Peak B Intensity F (HSA [4]): 800.96 a.u.; reduction of 3D-EEM peak A intensity (HSA [4]; after binding with HSA): 37.8%; reduction of 3D-EEM peak B intensity (HSA [4]; after binding with HSA): 19.7%
2 | O=C(O)C(F)(F)C(F)(F)C(F)(F)C(F)(F)C(F)(F)C(F)(F)C(=O)O [DFSA, Dodecafluorosuberic Acid] | 4.0% | 15.8% | 37.0% | 43.2% | 25.4% | 31.7% | 93.3% | static quenching | 9.7% | 0.58 ± 0.06 × 10^4 L·mol^−1 | 0.88 ± 0.02 | -4.338 kcal/mol | 0.58 ± 0.06 × 10^12 L·mol^−1·s^−1 | 0.51 ± 0.04 × 10^4 L·mol^−1 | 0.98 ± 0.05 | -5.136 kcal/mol | 0.51 ± 0.04 × 10^12 L·mol^−1·s^−1 | 0.45 ± 0.05 × 10^4 L·mol^−1 | 1.13 ± 0.07 | -6.123 kcal/mol | Kq (quenching rate constant) ([3]; T = 310 K): 0.45 ± 0.05 × 10^12 L·mol^−1·s^−1; ΔH [3]: 40.031 ± 1.02 kcal/mol; ΔS [3]: 622.5 ± 15.3 J·mol^−1·K^−1; affinity for HSA [3]: low affinity; main interaction force from thermodynamic analysis [3]: hydrophobic interactions; 3D-EEM Peak A Position λex/λem (HSA [4]): 280/336; 3D-EEM Peak B Position λex/λem (HSA [4]): 230/330; 3D-EEM Peak A Intensity F (HSA [4]): 629.75 a.u.; 3D-EEM Peak B Intensity F (HSA [4]): 839.38 a.u.
3 | O=C(O)C(F)(F)C(F)(F)C(F)(F)C(F)(F)C(F)(F)C(F)(F)F [PFHpA, Perfluoroheptanoic Acid] | 5.5% | 15.5% | 39.4% | 39.6% | 42.7% | 48.8% | 98.9% | static quenching | 12.1% | 0.69 ± 0.05 × 10^4 L·mol^−1 | 0.96 ± 0.04 | -4.986 kcal/mol | 0.69 ± 0.05 × 10^12 L·mol^−1·s^−1 | 0.53 ± 0.07 × 10^4 L·mol^−1 | 1.42 ± 0.06 | -7.968 kcal/mol | 0.53 ± 0.07 × 10^12 L·mol^−1·s^−1 | 0.32 ± 0.04 × 10^4 L·mol^−1 | 1.50 ± 0.05 | -8.332 kcal/mol | Kq (quenching rate constant) ([3]; T = 310 K): 0.32 ± 0.04 × 10^12 L·mol^−1·s^−1; ΔH [3]: 77.672 ± 3.399 kcal/mol; ΔS [3]: 1166.7 ± 42.7 J·mol^−1·K^−1; affinity for HSA [3]: low affinity; main interaction force from thermodynamic analysis [3]: hydrophobic interactions; 3D-EEM Peak A Position λex/λem (HSA [4]): 280/336; 3D-EEM Peak B Position λex/λem (HSA [4]): 230/335; 3D-EEM Peak A Intensity F (HSA [4]): 656.89 a.u.; 3D-EEM Peak B Intensity F (HSA [4]): 997.01 a.u.
